Data published in patent US7452865B2, “Antagonistic analogs of GH RH (2003)” (The Administrare's of the Tulane Educational Fund, priority 2004, dated 2008).
Marks after values point to notes of the source that are not given here. Square brackets hold non-standard residues; d marks the D form. Peptide text beside a SMILES is read from it. * marks the point of attachment. Phe(4-amidino) = N=C(N)c1ccc(C[C@H](N)C(=O)O)cc1; Phe(4-Cl) = N[C@@H](Cc1ccc(Cl)cc1)C(=O)O; hArg = N=C(N)NCCCC[C@H](N)C(=O)O; Nle = CCCC[C@H](N)C(=O)O; Abu = CC[C@H](N)C(=O)O; PhAc = O=C(Cc1ccccc1)*

Legend:
[1] = tested on: rat anterior pituitary adenylate cyclase; conditions: cited from earlier work
[2] = tested on: hGH-RH(1-29)NH2 induced GH release; test: Inhibition of GH release in superfused rat pituitary system; type: cell-based
Procedure, shortened: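 GH output was quantified by double-antibody RIA in superfusates of rat pituitary cells. Peptides were applied for 9 min at various concentrations before a 3-min 1 nM hGH-RH(1-29)NH2 pulse, with further pulses 30–120 min later; net integral responses given as percent of the original response.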

GH secretion = conditions: cited from earlier work
pituitary = conditions: cited from earlier work
mRNA for IGF-II = test: DMS-153 human SCLC xenografts: expression of mRNA for IGF-II; type: in vivo, nude mice; conditions: 10 μg/day s.c., 6 weeks, control group 100±1.5%
Protocol: (§1) Male nude mice were implanted s.c. with 3 mm^3 pieces of DMS-153 human SCLC tissue. When tumors reached a volume of approx. 100 mm^3 the mice were divided into 3 experimental groups of 68 animals each and received the following treatment for 6 weeks group 1 (control), vehicle solution; group 2, Peptide 67 (10 μg/day s.c.); group 3, Peptide 31 (10 μg/day s.c.). Tumor volumes were recorded twice a week. At the end of treatment, mice were anesthetized with isoflurane, killed by decapitation, trunk blood was collected for measurement of serum IGF-I, and tumors were excised and weighed. Data are presented as means±S.E. Data were evaluated by one way ANOVA and the Student-Newman-Keuls test.

IGF-I [3] = test: DMS-153 human SCLC xenografts: serum IGF-I; type: in vivo, nude mice; conditions: 10 μg/day s.c., 6 weeks
Source text: (§2) For the measurement of GH and IGF-I levels in the serum, as well as IGF-I and IGF-II concentrations in the cytosol fraction of tumors, blood samples and tumor samples were collected and processed as described (Braczkowski R, Schally A V, Plonowski A, Varga J L, Groot K, Krupa M, Armatis P, Cancer 95: 1735-1745, 2002), hereby incorporated by reference. Briefly, blood samples are centrifuged to separate the serum, tumors are homogenized and centrifuged to separate the cytosol fraction. Serum GH is then measured by the double-antibody RIA method. Before measurement by RIA, IGF-I and IGF-II are extracted from serum and cytosol fractions using an acid-ethanol cryoprecipitation method that eliminates most of the IGF binding proteins, which can interfere with the RIA. IGF-I concentration is measured by RIA using IGF-I as a standard and goat anti-IGF-I antibody (both from DSL Inc., Webster, Tex.). IGF-II concentration is measured by RIA using human recombinant IGF-II (Bachem) as a standard and anti-IGF-II monoclonal antibody (Amano International Enzyme, Troy, Va.).
as §1

[4] = tested on: PC-3 human prostate cancer xenografts; test: PC-3 xenografts in nude mice, Experiment 1: tumor growth; type: in vivo
Protocol: (§3) Male nude mice were implanted s.c. with 3 mm^3 pieces of PC-3 human hormone-independent prostate cancer tissue on both flanks. When tumors reached a volume of approx. 50 mm^3, the mice were divided into 5 experimental groups with 7 to 8 animals in each group and received single daily injections for 28 days as follows: 1. Control (vehicle solution); 2. JV-1-38 (10 μg/day s.c.); 3 Peptide 31 (10 μg/day s.c.); 4. Peptide 67 (10 μg/day s.c.); 5. Peptide 62 (10 μg/day s.c.). Tumor volumes were measured twice a week. The experiment was ended on day 29 by sacrificing the mice under Isoflurane anesthesia. Resulting tumors were cleaned, weighed, and snap-frozen until further analyses. Trunk blood was collected from the abdominal aorta and serum was separated for RIA measurement of IGF-I. Statistical analyses of the measurement results were done by two-tailed t-test; data are presented as the means±S.E.

IGF-II = test: PC-3 xenografts, Experiment 1: tumor IGF-II (RIA); type: in vivo, nude mice; conditions: 10 μg/day s.c., 28 days
Source text: as §2, §3

[5] = tested on: H-69 human SCLC xenografts; test: H-69 human SCLC xenografts in nude mice: tumor growth; type: in vivo; conditions: H-69
Protocol: Male nude mice were implanted s.c. with 3 mm^3 pieces of H-69 human SCLC tissue. When tumors reached a volume of approx. 80 mm^3 the mice were divided into 4 experimental groups of 7-8 animals each and received the following treatment for 4 weeks: group I (control), vehicle solution; group 2, Peptide 67 (10 μg/day s.c.); group 3, Peptide 31 (10 μg/day s.c.); group 4, Peptide 72 (10 μg/day s.c.). Tumor volumes were recorded twice a week. At the end of treatment, mice were anesthetized with isoflurane, killed by decapitation, and tumors were excised and weighed. Data are presented as means±S.E. Data were evaluated by one way ANOVA and the Student-Newman-Keuls test.

[6] = tested on: DMS-153 human SCLC xenografts; test: DMS-153 human SCLC xenografts in nude mice: tumor growth; type: in vivo
Protocol: as §1

IGF-I [7] = test: PC-3 xenografts, Experiment 1: serum IGF-I (RIA); type: in vivo, nude mice; conditions: 10 μg/day s.c., 28 days
Source text: as §2, §3

[8] = 10 μg/day s.c., 28 days, vs control
[9] = 10 μg/day s.c., 6 weeks, vs control

[Ac-Tyr^1, D-Arg^2]hGH-RH(1-29)NH2 [Standard antagonist, reference compound]
activation of rat anterior pituitary adenylate cyclase by hGH-RH(1-29)NH2 [1]: prevent the activation | GH response (% of control) 0 min ([2]; antagonist 100 nM, 0 min): 38 % of control | GH response (% of control) 30 min ([2]; antagonist 100 nM, 30 min): 98 % of control | GH response (% of control) 60 min ([2]; antagonist 100 nM, 60 min): 81 % of control | nocturnal GH secretion (GH secretion; 400 μg/kg, normal subjects): eliminated nocturnal GH secretion | GH levels (GH secretion; a patient with acromegaly): reduced GH levels

Tyr-Ala-Asp-Ala-Ile^5-Phe-Thr-Asn-Ser-Tyr^10-Arg-Lys-Val-Leu-Gly^15-Gln-Leu-Ser-Ala-Arg^20-Lys-Leu-Leu-Gln-Asp^25-Ile-Met-Ser-Arg^29-NH2 [GH-RH(1-29)]
potency retained relative to native GH-RH (pituitary): ≥ 50%

CCCC[C@H](NC(=O)[C@@H](NC(=O)[C@H](CC(=O)O)NC(=O)[C@H](CCC(N)=O)NC(=O)[C@H](CC(C)C)NC(=O)[C@H](CC(C)C)NC(=O)[C@H](CCCCN)NC(=O)[C@H](CCCNC(=N)N)NC(=O)[C@H](C)NC(=O)[C@H](CO)NC(=O)[C@H](CC(C)C)NC(=O)[C@H](CCC(N)=O)NC(=O)[C@H](CC)NC(=O)[C@H](CC(C)C)NC(=O)[C@@H](NC(=O)[C@H](CCCCN)NC(=O)[C@H](CCCNC(=N)N)NC(=O)[C@H](Cc1ccc(C(=N)N)cc1)NC(=O)[C@H](CCCCNC(=N)N)NC(=O)[C@H](CC(N)=O)NC(=O)[C@@H](NC(=O)[C@H](Cc1ccc(Cl)cc1)NC(=O)[C@@H](NC(=O)[C@H](C)NC(=O)[C@H](CC(=O)O)NC(=O)[C@@H](CCCNC(=N)N)NC(=O)[C@H](Cc1ccc(O)cc1)NC(=O)Cc1ccccc1)[C@@H](C)CC)[C@@H](C)O)C(C)C)[C@@H](C)CC)C(=O)N[C@H](CCCNC(=N)N)C(=O)N[C@@H](CCCCNC(=N)N)C(N)=O [Peptide 31, [PhAc-Tyr^1, D-Arg^2, Phe(pCl)^6, Har^9, Amp^10, Abu^15, Nle^27, D-Arg^28, Har^29]hGH-RH(1-29)NH2] (PhAc-Y[dR]DAI[Phe(4-Cl)]TN[hArg][Phe(4-amidino)]RKVL[Abu]QLSARKLLQDI[Nle][dR][hArg]-NH2)
level of expression of mRNA for IGF-II (mRNA for IGF-II): 42.7±18.5% | Serum IGF-I (IGF-I [3]): 118.4 ± 12.5 ng/mL | Serum IGF-I (% inhibition) (IGF-I [3]; vs control): (30%) | Tumor volume (mm^3) Final ([4]; 10 μg/day s.c., 28 days): 363 ± 92.8 mm^3 | Tumor volume doubling time ([4]; 10 μg/day s.c., 28 days): 14.0 ± 2.69 days | Tumor weight ([4]; 10 μg/day s.c., 28 days): 237 ± 53.3 mg | Tumor volume Final (% inhibition) [4, 8]: (28%) | Tumor weight (% inhibition) [4, 8]: (37%) | Tumor volume (mm^3) Initial ([4]; at start of treatment): 49.1 ± 12.5 mm^3 | Tumor IGF-II (pg/mg protein) (IGF-II): 130 ± 56.0 pg/mg protein | Tumor IGF-II (% inhibition) (IGF-II; vs control): (41%) | GH response (% of control) 0 min ([2]; antagonist 10 nM, 0 min): 57 % of control | GH response (% of control) 30 min ([2]; antagonist 10 nM, 30 min): 31 % of control | GH response (% of control) 60 min ([2]; antagonist 10 nM, 60 min): 37 % of control | GH response (% of control) 90 min ([2]; antagonist 10 nM, 90 min): 36 % of control | GH response (% of control) 120 min ([2]; antagonist 10 nM, 120 min): 37 % of control | GH response (% of control) 0 min ([2]; antagonist 30 nM, 1 nM hGH-RH(1-29)NH2 at 0 min): 7 % of control | GH response (% of control) 30 min ([2]; antagonist 30 nM, 1 nM hGH-RH(1-29)NH2 at 30 min): 1 % of control | GH response (% of control) 60 min ([2]; antagonist 30 nM, 1 nM hGH-RH(1-29)NH2 at 60 min): 2 % of control | GH response (% of control) 90 min ([2]; antagonist 30 nM, 1 nM hGH-RH(1-29)NH2 at 90 min): 4 % of control | GH response (% of control) 120 min ([2]; antagonist 30 nM, 1 nM hGH-RH(1-29)NH2 at 120 min): 3 % of control | endocrine antagonistic potency: inhibition of the GH release stimulated by hGH-RH(1-29)NH2 (in words) ([2]; general statement, in vitro and in vivo): high endocrine antagonistic potencies | Tumor volume (mm^3) Final ([5]; 10 μg/day s.c., 4 weeks): 832 ± 23* mm^3 | Tumor volume Final (% inhibition) ([5]; 10 μg/day s.c., 4 weeks, vs control): (67%) | Tumor volume (mm^3) Initial ([5]; at start of treatment): 80 ± 6 mm^3 | Tumor volume (mm^3) Final ([6]; 10 μg/day s.c., 6 weeks): 3329 ± 180 mm^3 | Tumor weight ([6]; 10 μg/day s.c., 6 weeks): 1.58 ± 0.11 g | Tumor volume Final (% inhibition) [6, 9]: (10%) | Tumor weight (% inhibition) [6, 9]: (32%) | Tumor volume (mm^3) Initial ([6]; at start of treatment): 138 ± 20 mm^3 | Serum IGF-I (IGF-I [7]): 133 ± 16.7 ng/mL | Serum IGF-I (% inhibition) (IGF-I [7]; vs control): (11%)
